# Laboratory results as given in patent US20230002327A1, “SMALL-MOLECULE REGULATOR OF TLR8” (TSINGHUA UNIVERSITY, priority 2019, published 2023).
# Experiments:
# [1] = system: R848-induced signaling pathway in human peripheral blood mononuclear cells; test: ELISA of TNF-α in R848-treated human peripheral blood mononuclear cells; format: cell-based; settings: human peripheral blood mononuclear cells (FIG. 8)
# Method: After 48 hours, suspending cells would adhere onto the surface of the 12-well plate, non-adhered cells and the medium were aspirated, and cells were washed with sterile […] buffer (3×1 mL). RPMI medium was added (1 mL/well), and R848 (1 μg/mL) and various concentrations of Compound 24 or Compound 10 (as a negative control) were further added to treat cells. Or, the same amount of peripheral blood mononuclear cells derived from healthy human were used instead of THP-1 cells for subsequent experiments.
# After 24 hours, the supernatant of the medium was collected and stored in a freezer at −80° C. Cells were washed with PBS (3×1 mL), the 12-well plate was placed on ice, and then 400 μL of lysis buffer (containing protease inhibitor) was added to each well, during which the cells were pipetted every five minutes. After 20 minutes, the mixture was transferred to the corresponding 1.5-mL tube and centrifuged at 13.2K rpm and 4° C. for 20 minutes. 350 μL of the supernatant was collected into a new centrifuge tube and frozen at −80° C.
# Cytokines interleukin-1β(IL-1β), interleukin-6 (IL-6) and tumor necrosis factor (TNF-α) were quantified by enzyme-linked immunosorbent assay (ELISA) according to the instructions of the kit provided by the manufacturer.
# [2] = system: peripheral blood mononuclear cells of patients suffering from rheumatoid arthritis; test: TNF-α in PBMC of rheumatoid arthritis patients; format: cell-based, human; settings: PBMC derived from rheumatoid arthritis patients (FIG. 9)
# Method: Approximately 8 mL of blood was collected from untreated rheumatoid arthritis patients.
# Peripheral blood mononuclear cells (PBMCs) were isolated from the whole blood derived from 6 rheumatoid arthritis patients using the lymphocyte separation medium, and the cells were seeded in a 96-well round-bottom plate at a density of 1×10^6 cells/mL immediately after the isolation (cultured in RPMI 1640 (0.25 mL/well)).
# Afterwards, cells were treated with 0, 10, 20, 40 and 80 μM Compound 24, Compound 10 was used as a negative control, and cells were placed in a cell incubator (37° C., 5% CO2) for incubation.
# After 24 hours, the resultant was centrifuged at 4,000 rpm/minute for 10 minutes, and then the supernatant was collected, frozen to −80° C. and used for the determination of TNF-α. Quantification was conducted using a human TNF ELISA Kit.
structure (smiles),measurement,setting,value
"OCCCc1nnc(S)n1-c1ccc(Cl)cc1Cl [Compound 10, 3-(4-(2,4-dichlorophenyl)-5-mercapto-4H-1,2,4-triazole-3-yl)propan-1-ol]",inhibitory effect on inflammatory factor TNF-α,[1],did not exert inhibitory effect
same,inhibitory effect on inflammatory factor TNF-α,[2],did not show such effect
